Where two headings read alike, the source gives them in different places.
What was measured:
EKVX = assay: NCI 60 five-dose screen EKVX; type: cell-based; conditions: Homo sapiens; for CC50: read-out: LC50 (the source's name) (converted)
SK-OV-3 = assay: NCI 60 five-dose screen SK-OV-3; type: cell-based; conditions: Homo sapiens; for CC50: read-out: LC50 (the source's name) (converted)
M14 = assay: NCI 60 five-dose screen M14; type: cell-based; conditions: Homo sapiens; for CC50: read-out: LC50 (the source's name) (converted)
full NCI 60 cell panel = assay: NCI 60 Cell One-dose screen; type: cell-based, human; conditions: single high dose 10^−5 M, NCI 60 panel
From the text: Compounds were submitted to the NCI 60 Cell screen and tested at a single high dose (10^−5 M) in the full NCI 60 cell panel (see the following reference for details of using NCI 60 human tumor cell lines for screening anticancer drugs: Shoemaker R H. The NCI60 human tumor cell line anticancer drug screen. Nature Rev Cancer 2006; 6: 813-23). The One-dose data is reported as a mean graph of the percent growth of treated cells. The number reported for the One-dose assay is growth relative to the no-drug control, and relative to the time zero number of cells. This allows detection of both growth inhibition (values between 0 and 100) and lethality (values less than 0). For example, a value of 100 means no growth inhibition. A value of 40 would mean 60% growth inhibition. A value of 0 means no net growth over the course of the experiment. A value of −40 would mean 40% lethality. A value of −100 means all cells are dead. FIGS. 1-8 show the mean graph of percent growth against the NCI-60 cell panel for NUCC-0226674, NUCC-0226679, NUCC-0226680, NUCC-0226683, NUCC-0226689, NUCC-0226694, NUCC-0226695, and NUCC-0226698.

T-47D = assay: NCI 60 five-dose screen T-47D; type: cell-based; conditions: Homo sapiens, T47D; for CC50: read-out: LC50 (the source's name)
OVCAR-4 = assay: NCI 60 five-dose screen OVCAR-4; type: cell-based; conditions: Homo sapiens; for CC50: read-out: LC50 (the source's name) (converted)
UO-31 = assay: NCI 60 five-dose screen UO-31; type: cell-based; conditions: Homo sapiens; for CC50: read-out: LC50 (the source's name) (converted)
HCT-116 = assay: NCI 60 five-dose screen HCT-116; type: cell-based; conditions: Homo sapiens; for CC50: read-out: LC50 (the source's name) (converted)
SNB-75 = assay: NCI 60 five-dose screen SNB-75; type: cell-based; conditions: Homo sapiens; for CC50: read-out: LC50 (the source's name) (converted)

## O=c1ccc(Cn2c(C(F)(F)F)cc3c(Cl)ncnc32)c[nH]1 [NUCC-0226698]
EKVX
  GI50: 14.1 µM
  IC50: 30.9 µM
  IC (TGI): 36.3 µM
  CC50: 91.2 µM
SK-OV-3
  GI50: 44.7 µM
  IC50: 100 µM
  IC (TGI): 100 µM
  CC50: ≥ 100 µM
M14
  GI50: 4.07 µM
  IC50: 6.92 µM
  IC (TGI): 21.9 µM
  CC50: ≥ 100 µM
Full NCI 60 cell panel
  growth inhibition in the One-Dose Screen: significant growth inhibition
T-47D
  GI50: 30.2 µM
  IC50: 79.4 µM
  IC (TGI): 100 µM
  CC50: ≥ 100 µM
OVCAR-4
  GI50: 17.8 µM
  IC50: 36.3 µM
  IC (TGI): 44.7 µM
  CC50: ≥ 100 µM
UO-31
  GI50: 5.01 µM
  IC50: 14.1 µM
  IC (TGI): 19.1 µM
  CC50: 47.9 µM
HCT-116
  GI50: 3.55 µM
  IC50: 4.17 µM
  IC (TGI): 29.5 µM
  CC50: ≥ 100 µM
SNB-75
  GI50: 10.7 µM
  IC50: 24 µM
  IC (TGI): 23.4 µM
  CC50: 50.1 µM

## FC(F)(F)c1cc2c(Cl)ncnc2n1CCN1CCOCC1 [NUCC-0226680]
EKVX; five-dose
  GI50: 17 µM
  IC50: 50.1 µM
  IC (TGI): 95.5 µM
  CC50: ≥ 100 µM
SK-OV-3; five-dose
  GI50: 100 µM
  IC50: 100 µM
  IC (TGI): 100 µM
  CC50: ≥ 100 µM
M14; five-dose
  GI50: 11.5 µM
  IC50: 20.4 µM
  IC (TGI): 36.3 µM
  CC50: ≥ 100 µM
Full NCI 60 cell panel
  growth inhibition in the One-Dose Screen: significant growth inhibition
T-47D; five-dose
  GI50: 38.9 µM
  IC50: 100 µM
  IC (TGI): 100 µM
  CC50: ≥ 100 µM
OVCAR-4; five-dose
  GI50: 33.1 µM
  IC50: 100 µM
  IC (TGI): 100 µM
  CC50: ≥ 100 µM
UO-31; five-dose
  GI50: 2.51 µM
  IC50: 5.37 µM
  IC (TGI): 8.91 µM
  CC50: 37.2 µM
HCT-116; five-dose
  GI50: 4.68 µM
  IC50: 5.62 µM
  IC (TGI): 100 µM
  CC50: ≥ 100 µM
SNB-75; five-dose
  GI50: 10.2 µM
  IC50: 23.4 µM
  IC (TGI): 22.4 µM
  CC50: 49 µM

## FC(F)(F)CN1CCN(CCn2c(C(F)(F)F)cc3c(Cl)ncnc32)CC1 [NUCC-0226683]
EKVX; five-dose
  GI50: 11.7 µM
  IC50: 28.8 µM
  IC (TGI): 40.7 µM
  CC50: ≥ 100 µM
SK-OV-3; five-dose
  GI50: 16.2 µM
  IC50: 38.9 µM
  IC (TGI): 43.7 µM
  CC50: ≥ 100 µM
M14; five-dose
  GI50: 6.17 µM
  IC50: 12.3 µM
  IC (TGI): 22.9 µM
  CC50: 67.6 µM
Full NCI 60 cell panel
  growth inhibition in the One-Dose Screen: significant growth inhibition
T-47D; five-dose
  GI50: 17.4 µM
  IC50: 49 µM
  IC (TGI): 63.1 µM
  CC50: ≥ 100 µM
OVCAR-4; five-dose
  GI50: 26.9 µM
  IC50: 89.1 µM
  IC (TGI): 100 µM
  CC50: ≥ 100 µM
UO-31; five-dose
  GI50: 1.62 µM
  IC50: 3.02 µM
  IC (TGI): 3.24 µM
  CC50: 6.61 µM
HCT-116; five-dose
  GI50: 3.16 µM
  IC50: 3.72 µM
  IC (TGI): 13.2 µM
  CC50: 64.6 µM
SNB-75; five-dose
  GI50: 3.09 µM
  IC50: 14.8 µM
  IC (TGI): 14.1 µM
  CC50: 38.9 µM

## Fc1ccc(N2CC(Cn3c(C(F)(F)F)cc4c(Cl)ncnc43)C2)c(F)c1 [NUCC-0226695]
EKVX
  GI50: 6.61 µM
  IC50: 16.6 µM
  IC (TGI): 20 µM
  CC50: 46.8 µM
SK-OV-3
  GI50: 14.5 µM
  IC50: 28.8 µM
  IC (TGI): 29.5 µM
  CC50: 60.3 µM
M14
  GI50: 2.95 µM
  IC50: 4.37 µM
  IC (TGI): 10.7 µM
  CC50: 45.7 µM
Full NCI 60 cell panel
  growth inhibition in the One-Dose Screen: significant growth inhibition
T-47D
  GI50: 13.8 µM
  IC50: 43.7 µM
  IC (TGI): 67.6 µM
  CC50: ≥ 100 µM
OVCAR-4
  GI50: 12.9 µM
  IC50: 24.5 µM
  IC (TGI): 26.9 µM
  CC50: 56.2 µM
UO-31
  GI50: 2.69 µM
  IC50: 5.75 µM
  IC (TGI): 10.7 µM
  CC50: 33.1 µM
HCT-116
  GI50: 1.91 µM
  IC50: 3.16 µM
  IC (TGI): 3.89 µM
  CC50: 7.94 µM
SNB-75
  GI50: 12 µM
  IC50: 25.1 µM
  IC (TGI): 24.5 µM
  CC50: 51.3 µM

## FC(F)(F)c1cc2c(Cl)ncnc2n1CCC1CCOCC1 [NUCC-0226674]
EKVX; five-dose
  GI50: 12.6 µM
  IC50: 25.7 µM
  IC (TGI): 28.2 µM
  CC50: 64.6 µM
SK-OV-3; five-dose
  GI50: 17.4 µM
  IC50: 33.1 µM
  IC (TGI): 33.1 µM
  CC50: 64.6 µM
M14; five-dose
  GI50: 3.72 µM
  IC50: 6.31 µM
  IC (TGI): 16.2 µM
  CC50: 50.1 µM
Full NCI 60 cell panel
  growth inhibition in the One-Dose Screen: significant growth inhibition
T-47D; five-dose
  GI50: 20.4 µM
  IC50: 47.9 µM
  IC (TGI): 60.3 µM
  CC50: ≥ 100 µM
OVCAR-4; five-dose
  GI50: 18.6 µM
  IC50: 38 µM
  IC (TGI): 50.1 µM
  CC50: ≥ 100 µM
UO-31; five-dose
  GI50: 1.78 µM
  IC50: 3.39 µM
  IC (TGI): 3.8 µM
  CC50: 7.94 µM
HCT-116; five-dose
  GI50: 2.34 µM
  IC50: 3.24 µM
  IC (TGI): 6.46 µM
  CC50: 28.8 µM
SNB-75; five-dose
  GI50: 3.09 µM
  IC50: 15.5 µM
  IC (TGI): 15.1 µM
  CC50: 39.8 µM

## COc1cc(Cn2c(C(F)(F)F)cc3c(Cl)ncnc32)ccn1 [NUCC-0226694]
EKVX
  GI50: 7.94 µM
  IC50: 17 µM
  IC (TGI): 24 µM
  CC50: 63.1 µM
SK-OV-3
  GI50: 17 µM
  IC50: 32.4 µM
  IC (TGI): 32.4 µM
  CC50: 61.7 µM
M14
  GI50: 1.51 µM
  IC50: 2.69 µM
  IC (TGI): 4.17 µM
  CC50: 16.6 µM
Full NCI 60 cell panel
  growth inhibition in the One-Dose Screen: significant growth inhibition
T-47D
  GI50: 13.5 µM
  IC50: 38 µM
  IC (TGI): 61.7 µM
  CC50: ≥ 100 µM
OVCAR-4
  GI50: 12 µM
  IC50: 22.9 µM
  IC (TGI): 26.9 µM
  CC50: 58.9 µM
UO-31
  GI50: 8.71 µM
  IC50: 18.2 µM
  IC (TGI): 24 µM
  CC50: 61.7 µM
HCT-116
  GI50: 1.74 µM
  IC50: 2.63 µM
  IC (TGI): 4.27 µM
  CC50: 15.1 µM
SNB-75
  GI50: 1.78 µM
  IC50: 6.61 µM
  IC (TGI): 7.24 µM
  CC50: 27.5 µM

## FC(F)(F)c1cc2c(Cl)ncnc2n1CCN1CCCCC1 [NUCC-0226679]
EKVX; five-dose
  GI50: 16.2 µM
  IC50: 51.3 µM
  IC (TGI): 85.1 µM
  CC50: ≥ 100 µM
SK-OV-3; five-dose
  GI50: 52.5 µM
  IC50: 100 µM
  IC (TGI): 100 µM
  CC50: ≥ 100 µM
M14; five-dose
  GI50: 12.9 µM
  IC50: 22.4 µM
  IC (TGI): 33.1 µM
  CC50: 87.1 µM
Full NCI 60 cell panel
  growth inhibition in the One-Dose Screen: significant growth inhibition
T-47D; five-dose
  GI50: 21.9 µM
  IC50: 70.8 µM
  IC (TGI): 100 µM
  CC50: ≥ 100 µM
OVCAR-4; five-dose
  GI50: 28.2 µM
  IC50: 70.8 µM
  IC (TGI): 100 µM
  CC50: ≥ 100 µM
UO-31; five-dose
  GI50: 1.74 µM
  IC50: 3.31 µM
  IC (TGI): 3.55 µM
  CC50: 7.41 µM
HCT-116; five-dose
  GI50: 4.9 µM
  IC50: 6.03 µM
  IC (TGI): 20.4 µM
  CC50: 67.6 µM
SNB-75; five-dose
  GI50: 10.5 µM
  IC50: 22.9 µM
  IC (TGI): 22.4 µM
  CC50: 47.9 µM

## OC1CCC(Cn2c(C(F)(F)F)cc3c(Cl)ncnc32)CC1 (stereo not drawn) [NUCC-0226689]
EKVX; five-dose
  GI50: 12.9 µM
  IC50: 29.5 µM
  IC (TGI): 38.9 µM
  CC50: ≥ 100 µM
SK-OV-3; five-dose
  GI50: 22.4 µM
  IC50: 67.6 µM
  IC (TGI): 100 µM
  CC50: ≥ 100 µM
M14; five-dose
  GI50: 4.9 µM
  IC50: 8.71 µM
  IC (TGI): 26.9 µM
  CC50: ≥ 100 µM
Full NCI 60 cell panel
  growth inhibition in the One-Dose Screen: significant growth inhibition
T-47D; five-dose
  GI50: 26.3 µM
  IC50: 91.2 µM
  IC (TGI): 100 µM
  CC50: ≥ 100 µM
OVCAR-4; five-dose
  GI50: 17.8 µM
  IC50: 37.2 µM
  IC (TGI): 46.8 µM
  CC50: ≥ 100 µM
UO-31; five-dose
  GI50: 15.1 µM
  IC50: 38.9 µM
  IC (TGI): 66.1 µM
  CC50: ≥ 100 µM
HCT-116; five-dose
  GI50: 3.55 µM
  IC50: 4.17 µM
  IC (TGI): 15.8 µM
  CC50: 72.4 µM
SNB-75; five-dose
  GI50: 10.7 µM
  IC50: 23.4 µM
  IC (TGI): 22.9 µM
  CC50: 49 µM
